Laboratory results published in PubChem BioAssay (NCI).
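In this assay, cells in 96-well plates receive the compound at five concentrations for 48 hours. Endpoints are linearly interpolated between the surrounding concentrations. GI50 marks 50% less growth. TGI: total growth inhibition.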

Columns and labels:
Assay in all cases: NCI tumour cell line growth inhibition, 48 h
ACHN renal = system: ACHN renal
CCRF-CEM leukemia = system: CCRF-CEM leukemia
HOP-92 NSCLC = system: HOP-92 NSCLC
MDA-MB-231 breast = system: MDA-MB-231 breast
OVCAR-8 ovarian = system: OVCAR-8 ovarian
SF-268 CNS = system: SF-268 CNS
SF-295 CNS = system: SF-295 CNS
SF-539 CNS = system: SF-539 CNS
TK-10 renal = system: TK-10 renal
UACC-62 melanoma = system: UACC-62 melanoma

| Compound | GI50 (ACHN renal) [µM] | TGI (ACHN renal) [µM] | GI50 (CCRF-CEM leukemia) [µM] | TGI (CCRF-CEM leukemia) [µM] | GI50 (HOP-92 NSCLC) [µM] | TGI (HOP-92 NSCLC) [µM] | GI50 (MDA-MB-231 breast) [µM] | TGI (MDA-MB-231 breast) [µM] | GI50 (OVCAR-8 ovarian) [µM] | TGI (OVCAR-8 ovarian) [µM] | GI50 (SF-268 CNS) [µM] | TGI (SF-268 CNS) [µM] | GI50 (SF-295 CNS) [µM] | TGI (SF-295 CNS) [µM] | GI50 (SF-539 CNS) [µM] | TGI (SF-539 CNS) [µM] | GI50 (TK-10 renal) [µM] | TGI (TK-10 renal) [µM] | GI50 (UACC-62 melanoma) [µM] | TGI (UACC-62 melanoma) [µM] |
| --- | --- | --- | --- | --- | --- | --- | --- | --- | --- | --- | --- | --- | --- | --- | --- | --- | --- | --- | --- | --- |
| COc1ncnc(C2CC2)c1-c1ncc2cnn(Cc3ccc(-c4nc(C(F)(F)F)cn4C(C)C)cc3)c2n1 | 17.6 | 49.2 | 34 | > 100 | 6.41 | 73.5 | 22.9 | > 100 | 21 | > 100 | 16.2 | 80.9 | 18.4 | 65.1 | 16.1 | 39 | 29 | > 100 | – | – |
| Cn1cc(C2=C(c3ccc4ccccc4c3)C(=O)NC2=O)c2ccccc21 | > 25 | > 25 | > 25 | > 25 | > 25 | > 25 | > 25 | > 25 | > 25 | > 25 | > 25 | > 25 | > 23.5 | > 25 | > 25 | > 25 | > 25 | > 25 | 21.3 | > 25 |
| Ic1ccc(Nc2nc3nonc3nc2Nc2ccc(I)cc2)cc1 | 0.269 | > 100 | 0.145 | > 100 | 0.0408 | 0.458 | 0.209 | 0.641 | 0.351 | > 100 | 0.304 | > 100 | 0.215 | 0.893 | – | – | 0.321 | > 100 | – | – |
